Values of other authors as cited in patent US7629004B2, “Composition and process for removing and preventing mildew and fungal growth” (priority 2005, dated 2009).

Tested on: fungi
Conditions: fungal contamination of aircraft interior surfaces

CC(C)O [isopropyl alcohol]
Effectiveness of approved military cleaning procedure: ineffective
